Measured values reported in patent US10899738B2 (THE REGENTS OF THE UNIVERSITY OF MICHIGAN, priority 2016, dated 2021).
Like-named read-outs stand apart in the source and are kept apart here.

Columns and labels:
[1] = Cell growth inhibition, CellTiter-Glo Luminescent Cell Viability Assay; format: cell-based
Method: Cell growth inhibitory activity of representative menin inhibitors was determined using CellTiter-Glo® Luminescent Cell Viability Assay. Cells were seeded in 384-well white opaque cell culture plates at a density of 2,000 cells/well with serially diluted compounds and incubated at 37° C. in an atmosphere of 95% air and 5% CO2 for 4 days. Cell viability was determined using the CellTiter-Glo® Luminescent Cell Viability Assay Kit (Promega, Madison, Wis.) according to the manufacture's instruction. Briefly, a volume of CellTiter-Glo® Reagent equal to the volume of cell culture medium was added to each well, and then the plates were incubated at room temperature for 10-20 minutes. The luminescent signal was measured using a Tecan Infinite M1000 multimode microplate reader (Tecan, Morrisville, N.C.). The half maximal inhibitory concentration (IC50) was calculated using the GraphPad Prism 5 software (GraphPad Software, La Jolla, Calif.).

menin protein = menin protein (Homo sapiens (Human), UniProt O00255); experiment: biochemical; format: binding; conditions: FP competitive binding; menin protein 4 nM, FAM-MM2 probe 2 nM; read-out: Menin Binding Affinity IC50
Sequence of menin protein (O00255 whole entry): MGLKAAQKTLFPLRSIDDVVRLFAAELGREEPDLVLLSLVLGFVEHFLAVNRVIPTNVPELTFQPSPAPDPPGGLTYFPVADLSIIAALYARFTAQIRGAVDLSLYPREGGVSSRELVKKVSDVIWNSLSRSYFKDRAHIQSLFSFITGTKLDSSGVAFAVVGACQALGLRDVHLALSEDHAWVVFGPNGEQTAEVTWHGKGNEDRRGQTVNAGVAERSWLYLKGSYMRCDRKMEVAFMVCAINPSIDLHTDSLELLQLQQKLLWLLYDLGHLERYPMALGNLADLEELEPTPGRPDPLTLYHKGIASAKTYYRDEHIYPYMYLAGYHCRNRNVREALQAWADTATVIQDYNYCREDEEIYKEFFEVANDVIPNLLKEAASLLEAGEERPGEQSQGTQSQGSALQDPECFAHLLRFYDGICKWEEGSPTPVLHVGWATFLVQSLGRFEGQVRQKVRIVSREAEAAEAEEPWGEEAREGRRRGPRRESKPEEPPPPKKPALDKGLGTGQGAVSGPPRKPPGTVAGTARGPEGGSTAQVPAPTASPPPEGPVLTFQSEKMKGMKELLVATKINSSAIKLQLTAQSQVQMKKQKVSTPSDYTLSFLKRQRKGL
Method in brief: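 Competitive fluorescence polarization assay using FAM-labelled MLL1 peptide probe FAM-MM2 (2 nM final) preincubated with menin (4 nM final) in PBS with 0.02% bovine γ-globulin, 4% DMSO and 0.01% Triton X-100. Compounds were added and incubated 30 min at room temperature. IC50 came from nonlinear regression of competition curves, with Ki also derived.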

[2] = MOLM-13, 96 h, read-out: Cell Growth Inhibition IC50 (μM) MOLM13, MOLM13 cells, 4 days, CellTiter-Glo
[3] = MV4-11, 96 h, read-out: Cell Growth Inhibition IC50 (μM) MV4, 11, MV4, 11 cells, 4 days, CellTiter-Glo
[4] = MOLM-13, 96 h, MOLM13 cells, 4 days, CellTiter-Glo, read-out: Cell Growth Inhibition IC50 (μM) MOLM13
[5] = MV4-11, 96 h, MV4, 11 cells, 4 days, CellTiter-Glo, read-out: Cell Growth Inhibition IC50 (μM) MV4, 11
[6] = read-out: Cell Growth Inhibition IC50 (μM) MOLM13, MOLM13 cells, 4 days, CellTiter-Glo
[7] = read-out: Cell Growth Inhibition IC50 (μM) MV4, 11, MV4, 11 cells, 4 days, CellTiter-Glo

SMILES	IC50 [1, 2] [µM]	IC50 [1, 3] [µM]	IC50 (menin protein) [nM]	IC50 [1, 4] [µM]	IC50 [1, 5] [µM]	IC50 [1, 6] [µM]	IC50 [1, 7] [µM]
CC(=O)O[C@H]1CCC[C@@H]1C1(C2CCN(CC3CN(c4ccc(S(=O)(=O)c5ccncc5)cc4)C3)CC2)CN(C)Cc2ccccc21 (mixture of isomers) [compound 206, rac-(1S,2R)-2-(2-methyl-4-(1-((1-(4-(pyridin-4-ylsulfonyl)phenyl)azetidin-3-yl)methyl)piperidin-4-yl)-1,2,3,4-tetrahydroisoquinolin-4-yl)cyclopentyl acetate]	0.411 ± 0.3	0.119 ± 0.048	3				
O=S(=O)(c1ccc(N2CC(CN3CCC(C4(C5CCCC5)NCCc5ccccc54)CC3)C2)cc1)C1CCCC1 (stereo not drawn) [compound 146, 1-cyclopentyl-1-(1-((1-(4-(cyclopentylsulfonyl)phenyl)azetidin-3-yl)methyl)piperidin-4-yl)-1,2,3,4-tetrahydroisoquinoline]			13	1.9 ± 1.2	0.785 ± 0.247		
CC(=O)O[C@H]1CCC[C@@H]1C1(C2CCN(CC3CN(c4ccc(S(=O)(=O)C5CC5)cc4)C3)CC2)CN(C)Cc2ccc(F)cc21 (mixture of isomers) [compound 316, rac-(1S,2R)-2-(4-(1-((1-(4-(cyclopropylsulfonyl)phenyl)azetidin-3-yl)methyl)piperidin-4-yl)-6-fluoro-2-methyl-1,2,3,4-tetrahydroisoquinolin-4-yl)cyclopentyl acetate]	1.8	0.3	3				
CNC(=O)O[C@H]1CCC[C@@H]1C(Cn1ccnc1C)(c1ccccc1)C1CCN(CC2CN(c3ccc(C#N)cc3)C2)CC1 (mixture of isomers) [compound 406, rac-(1S,2R)-2-(1-(1-((1-(4-cyanophenyl)azetidin-3-yl)methyl)piperidin-4-yl)-2-(2-methyl-1H-imidazol-1-yl)-1-phenylethyl)cyclopentyl methylcarbamate]	0.009 ± 0.0004	0.004 ± 0.002	3				
CC(C)S(=O)(=O)c1ccc(N2CC(CN3CCC(C4(C5CCCC5)NCCc5ccccc54)CC3)C2)cc1 (stereo not drawn) [compound 134, 1-cyclopentyl-1-(1-((1-(4-(isopropylsulfonyl)phenyl)azetidin-3-yl)methyl)piperidin-4-yl)-1,2,3,4-tetrahydroisoquinoline]			67	3.8	1.1		
CCC(=O)O[C@H]1CCC[C@@H]1C(C#N)(c1ccccc1)C1CCN(CC2CN(c3ccc(S(=O)(=O)c4ccncc4)cc3)C2)CC1 (mixture of isomers) [compound 195, rac-(1S,2R)-2-(cyano(phenyl)(1-((1-(4-(pyridin-4-ylsulfonyl)phenyl)azetidin-3-yl)methyl)piperidin-4-yl)methyl)cyclopentyl propionate]	1.5	0.991	10				
CNC(=O)N[C@H]1CCC[C@@H]1C1(C2CCN(CC3CN(c4ccc(S(=O)(=O)c5ccncc5)cc4)C3)CC2)CN(C)Cc2ccccc21 (mixture of isomers) [compound 277, rac-1-methyl-3-((1S,2R)-2-(2-methyl-4-(1-((1-(4-(pyridin-4-ylsulfonyl)phenyl)azetidin-3-yl)methyl)piperidin-4-yl)-1,2,3,4-tetrahydroisoquinolin-4-yl)cyclopentyl)urea]	0.43	0.12	8				
CCN1Cc2ccccc2C(C2CCCC2)(C2CCN(CC3CN(c4ccc(S(=O)(=O)CC)cc4)C3)CC2)C1 (stereo not drawn) [compound 136, 4-cyclopentyl-2-ethyl-4-(1-((1-(4-(ethylsulfonyl)phenyl)azetidin-3-yl)methyl)piperidin-4-yl)-1,2,3,4-tetrahydroisoquinoline]			9	3.8	1.2		
N#Cc1ccc(N2CC(CN3CCC(C4(C5CCCC5)CNCc5ccccc54)CC3)C2)cc1 (stereo not drawn) [compound 43, 4-(3-((4-(4-cyclopentyl-1,2,3,4-tetrahydroisoquinolin-4-yl)piperidin-1-yl)methyl)azetidin-1-yl)benzonitrile]			26	2.1	0.896 ± 0.056		
CNC(=O)O[C@H]1CCC[C@@H]1C(Cn1ccnc1)(c1ccccc1)C1CCN(CC2CN(c3ccc(S(=O)(=O)c4ccc(C(=O)O)cc4)cc3)C2)CC1 (mixture of isomers) [compound 363, rac-4-((4-(3-((4-(2-(1H-imidazol-1-yl)-1-((1R,2S)-2-((methylcarbamoyl)oxy)cyclopentyl)-1-phenylethyl)piperidin-1-yl)methyl)azetidin-1-yl)phenyl)sulfonyl)benzoic acid]			27			2.64	0.56
CCc1nccn1CC(c1ccccc1)(C1CCN(CC2CN(c3ccc(C#N)cc3)C2)CC1)[C@@H]1CCC[C@H]1OC(=O)NC (mixture of isomers) [compound 409, rac-(1R,2S)-2-(1-(1-((1-(4-cyanophenyl)azetidin-3-yl)methyl)piperidin-4-yl)-2-(2-ethyl-1H-imidazol-1-yl)-1-phenylethyl)cyclopentyl methylcarbamate]	1.6	1.7	116				
CC(=O)N[C@@H]1CCC[C@H]1C1(C2CCN(CC3CN(c4ccc(S(=O)(=O)c5ccncc5)cc4)C3)CC2)CN(C)Cc2ccccc21 (mixture of isomers) [compound 272, rac-N-((1R,2S)-2-(2-methyl-4-(1-((1-(4-(pyridin-4-ylsulfonyl)phenyl)azetidin-3-yl)methyl)piperidin-4-yl)-1,2,3,4-tetrahydroisoquinolin-4-yl)cyclopentyl)acetamide]	2.97	4.29 ± 1.45	180				
COC(=O)N[C@H]1CCC[C@@H]1C(C#N)(c1ccccc1)C1CCN(CC2CN(c3ccc(S(=O)(=O)c4ccccc4)cc3)C2)CC1 (mixture of isomers) [compound 347, methyl (rac-(1S,2R)-2-(cyano(phenyl)(1-((1-(4-(phenylsulfonyl)phenyl)azetidin-3-yl)methyl)piperidin-4-yl)methyl)cyclopentyl) carbamate]	0.44	0.36	14				
CCN1Cc2ccccc2C(C2CCCC2)(C2CCN(CC3CN(c4ccc(S(=O)(=O)c5cnn(CC)c5)cc4)C3)CC2)C1 (stereo not drawn) [compound 103, 4-cyclopentyl-2-ethyl-4-(1-((1-(4-((1-ethyl-1H-pyrazol-4-yl)sulfonyl)phenyl)azetidin-3-yl)methyl)piperidin-4-yl)-1,2,3,4-tetrahydroisoquinoline]			12	2.26	0.49		
CNC(=O)O[C@H]1CCC[C@@H]1C(Cn1ccnc1)(c1ccccc1)C1CCN(CC2CN(c3ccc(S(=O)(=O)c4ccc(C(=O)O)cc4)cc3)C2)CC1 (mixture of isomers) [compound 362, rac-4-((4-(3-((4-(2-(1H-imidazol-1-yl)-1-((1R,2S)-2-((methylcarbamoyl)oxy)cyclopentyl)-1-phenylethyl)piperidin-1-yl)methyl)azetidin-1-yl)phenyl)sulfonyl)benzoic acid]			8			> 10	4.79
COC(=O)N[C@H]1CCC[C@@H]1C(C#N)(c1ccccc1)C1CCN(CC2(F)CN(c3ccc(S(=O)(=O)c4cnn(C)c4)cc3)C2)CC1 (mixture of isomers) [compound 397, methyl rac-((1S,2R)-2-(cyano(1-((3-fluoro-1-(4-((1-methyl-1H-pyrazol-4-yl)sulfonyl)phenyl)azetidin-3-yl)methyl)piperidin-4-yl)(phenyl)methyl)cyclopentyl) carbamate]	> 10	4.54	186				
